From patent US20190322643A1 (Georgia State University Research Foundation, Inc., priority 2016, published 2019)

Legend:
G9a = biological target: T1, G9a (Homo sapiens, UniProt Q96KQ7); assay: H3K9Me2 cell immunofluorescence in-cell Western (ICW) assay; type: cell-based; details: MDA-MB-231 cell line, 48 h
T1 construct: endogenous in cells; host or cells: MDA-MB-231
T1 sequence (Q96KQ7 1-1210): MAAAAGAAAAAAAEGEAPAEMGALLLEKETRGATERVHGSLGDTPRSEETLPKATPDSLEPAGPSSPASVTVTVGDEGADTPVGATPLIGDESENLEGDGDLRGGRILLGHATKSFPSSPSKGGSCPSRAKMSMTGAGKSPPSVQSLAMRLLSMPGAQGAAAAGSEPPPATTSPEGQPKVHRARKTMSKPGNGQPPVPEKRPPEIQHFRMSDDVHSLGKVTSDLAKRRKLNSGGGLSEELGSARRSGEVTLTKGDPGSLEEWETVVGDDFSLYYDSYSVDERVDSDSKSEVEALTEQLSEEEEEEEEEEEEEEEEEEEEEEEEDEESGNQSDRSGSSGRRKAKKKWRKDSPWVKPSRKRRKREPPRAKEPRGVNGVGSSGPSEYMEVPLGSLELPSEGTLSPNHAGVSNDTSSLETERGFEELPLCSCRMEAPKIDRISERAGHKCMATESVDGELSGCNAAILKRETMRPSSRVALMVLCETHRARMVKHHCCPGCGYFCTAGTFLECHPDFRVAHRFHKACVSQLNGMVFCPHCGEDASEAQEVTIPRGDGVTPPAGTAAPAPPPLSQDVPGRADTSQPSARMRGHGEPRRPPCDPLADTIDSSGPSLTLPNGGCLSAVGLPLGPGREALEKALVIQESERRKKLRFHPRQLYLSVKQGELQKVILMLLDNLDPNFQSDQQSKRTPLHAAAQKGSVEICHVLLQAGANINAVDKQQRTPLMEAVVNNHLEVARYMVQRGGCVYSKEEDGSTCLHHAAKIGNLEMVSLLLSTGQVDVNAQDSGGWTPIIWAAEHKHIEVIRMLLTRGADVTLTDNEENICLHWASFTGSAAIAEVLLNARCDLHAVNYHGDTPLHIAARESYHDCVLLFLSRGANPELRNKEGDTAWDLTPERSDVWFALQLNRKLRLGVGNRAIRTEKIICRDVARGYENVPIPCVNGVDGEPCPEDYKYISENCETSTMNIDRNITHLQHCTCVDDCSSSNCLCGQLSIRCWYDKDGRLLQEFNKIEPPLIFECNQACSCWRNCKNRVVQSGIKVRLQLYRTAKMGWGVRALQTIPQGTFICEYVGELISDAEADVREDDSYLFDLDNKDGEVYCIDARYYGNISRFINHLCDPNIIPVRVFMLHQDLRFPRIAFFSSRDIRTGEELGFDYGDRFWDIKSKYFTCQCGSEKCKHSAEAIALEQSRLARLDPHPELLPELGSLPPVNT

HDAC [1] = assay: Cell based homogenous HDAC assay, A549; details: read-out: IC50-HDAC A549; A549 cells, mean ± SD of triplicate
Procedure: (§3) After 24 h, 9 μl inhibitors with different concentration were added to the HeLa cells and incubation was continued for 3 h under cell culture conditions. After this treatment period, 10 μl of a 2 mM stock solution of the substrate Boc-K(Ac)-AMC was added into the 96 well plates with Hela cells and inhibitors. […] A549 and K562 cell lines used the same method, respectively. IC50s were calculated using GraphPad Prizm statistical package with sigmoidal variable slope dose response curve fit.
(§4) Boc-K(Ac)-AMC was used as a cell-permeable HDAC substrate, as after deacetylation it is cleaved by trypsin to release the florescent 7-amino-4-methylcoumarin (AMC).

A549 = assay: Cytotoxicity / anti-proliferation assay (CCK-8), A549; type: cell-based; details: Homo sapiens, 72 h, CCK-8 kit
Procedure: (§1) Then the cells were exposed to the different inhibitors with various concentrations for 72 h. […] EC50s were calculated using GraphPad Prizm statistical package with sigmoidal variable slope dose response curve fit.
(§2) Cell anti-proliferation assays were performed to determine the toxicity of these inhibitors. […] These compounds were further evaluated against the control cell line HEK293 to test their toxicity with a non-cancerous cell line.

HCT-8 = assay: Cytotoxicity / anti-proliferation assay (CCK-8), HCT-8; type: cell-based; details: Homo sapiens, 72 h, CCK-8 kit
Procedure: as §1, §2

HDAC [2] = assay: Cell based homogenous HDAC assay, K562; details: read-out: IC50-HDAC K562; K562 cells, mean ± SD of triplicate
Procedure: as §3, §4

CN1CCCN(c2nc(NC3CCN(Cc4ccccc4)CC3)c3ccc(OCCCCCCC(=O)NO)cc3n2)CC1 [Compound 30]
> 100 µM: IC50 (G9a) | IC50 (HDAC [1]) | EC50 (A549) | EC50 (HCT-8) | IC50 (HDAC [2])
